Data on five compounds can be found in patent publication US7790885B2, “Process for preparing phenoxypyridine derivatives” (Eisai R&D Management Co., Ltd., priority 2006, dated 2010).

For test [1], the system named is Human gastric cancer cells (MKN-45). Kind of test: Inhibitory activity against the proliferation of human gastric cancer cells (MKN-45). It counts as cell-based. To be noted: 72 h, read-out: IC50 (concentration necessary to inhibit the cell proliferation by 50%), MKN-45 cells, 1% FBS-containing RPMI1640, 3 days, Cell Counting Kit-8. On the procedure:
Human gastric cancer cells (MKN-45) were suspended in a 1% FBS-containing RPMI1640 medium (purchased from Sigma). The cell suspension (1×10^4 cells/ml) was added in a 96-well plate for cell culture (purchased from NUNC, Production No. 167008) at 0.1 ml/well, and then cultured in a 5% CO2 incubator (37° C.) overnight. After the culture, each well was supplied with 0.1 ml of a test substance diluted with a 1% FBS-containing RPMI1640 medium, followed by culturing in a 5% CO2 incubator (37° C.) for 3 days. After the culture, each well was supplied with 10 μl of Cell Counting Kit-8 (purchased from DOJINDO, Production No. 343-07623), followed by incubation in a 5% CO2 incubator (37° C.) for about 1.5 hrs. After the incubation, using the Plate Reader MTP-500 (Corona Electric), the absorbance of each well was determined at a measurement wavelength of 450 nm and a reference wavelength of 660 nm.

Test [2] has as its target T1, HGFR (Homo sapiens, UniProt P08581). Kind of test: Inhibitory activity against HGFR tyrosine kinase activity (HTRF). Further details: His6-HGFR, the HGFR cytoplasmic domain fused with six histidine at the N terminus; made in house; host or cells: Sf9 insect cells (baculovirus, pFastBac-HT). Type of test: biochemical. To be noted: His6-HGFR cytoplasmic domain, biotin-poly(GT) substrate, ATP, 30° C. for 10 min. An excerpt:
The DNA fragment was isolated from the human placental cDNA library (purchased from Clontech) by PCR (TaKaRa Ex Taq™ Kit, purchased from TaKaRa) using two kinds of primers (SEQ ID NO: 1,5′-[…]-3′ and SEQ ID NO: 2,5′-[…]-3′, purchased from Invitrogen). The DNA fragment was cloned into a baculovirus transplace vector (pFastBac™-HT (purchased from GIBCO BRL)) to produce a recombinant construct. […] EGFR was purchased from Sigma (Production No. E-2645).
To the suspension of Sf9 cells (3×10^8 cells) in SF-900II medium (purchased from Invitrogen) containing 2% FBS was added a solution of HGFR transfected baculovirus above (4 ml), followed by a shaking culture at 27° C. for 48 hrs. The cells infected with the HGFR transfected baculovirus were centrifuged at 1,000 rpm, 4° C. for 5 min to remove the supernatant. The precipitated infected cells were suspended in 80 ml of ice-cold PBS, and centrifuged at 1,000 rpm, 4° C. for 5 min to remove the supernatant. The precipitated infected cells were suspended in 40 ml of ice-cold Lysis Buffer (50 mM Tris-HCl (pH 8.5), 5 mM 2-mercaptoethanol, 100 mM KCl, 1 mM PMSF and 1% (v/v) NP-40). The suspension was centrifuged at 12,000 rpm, 4° C. for 30 min to provide a supernatant.
The supernatant was loaded onto an Ni-NTA agarose column (3 ml, purchased from Qiagen) equilibrated with 30 ml of Buffer A (20 mM Tris-HCl (pH 8.5), 5 mM 2-mercaptoethanol, 500 mM KCl, 20 mM imidazole and 10% (v/v) glycerol). The column was washed with 30 ml of Buffer A, 6 ml of Buffer B (20 mM Tris-HCl (pH 8.5), 5 mM 2-mercaptoethanol, 1 M KCl, and 10% (v/v) glycerol) and 6 ml of Buffer A in this order. Then, the column was eluted with 6 ml of Buffer C (20 mM Tris-HCl (pH 8.5), 5 mM 2-mercaptoethanol, 100 mM KCl, 100 mM imidazole, and 10% (v/v) glycerol) to provide a fraction. The fraction was entrapped in a dialysis membrane (purchased from Spectrum Laboratories), dialyzed at 4° C. overnight with 1 L of dialysis buffer (20 mM Tris-HCl (pH 7.5), 10% (v/v) glycerol, 1 mM dithiothreitol, 0.1 mM Na3VO4 and 0.1 mM EGTA), and stored at −80° C. until used. […] The VEGFR2 cytoplasmic domain, the FGFR1 cytoplasmic domain, and the PDGFRβ cytoplasmic domain were fused with six histidine at the N terminus by the similar method to produce respective recombinant proteins (His6-VEGFR2, His6-FGFR1, and His6-PDGFRβ).
The tyrosine-phosphorylated biotin-poly(GT) was detected using the Homogenous Time-Resolved Fluorescence (HTRF) method (Analytical Biochemistry, 269, 94-104, 1999).
Target sequence in this assay (P08581 956-1390 limits assumed): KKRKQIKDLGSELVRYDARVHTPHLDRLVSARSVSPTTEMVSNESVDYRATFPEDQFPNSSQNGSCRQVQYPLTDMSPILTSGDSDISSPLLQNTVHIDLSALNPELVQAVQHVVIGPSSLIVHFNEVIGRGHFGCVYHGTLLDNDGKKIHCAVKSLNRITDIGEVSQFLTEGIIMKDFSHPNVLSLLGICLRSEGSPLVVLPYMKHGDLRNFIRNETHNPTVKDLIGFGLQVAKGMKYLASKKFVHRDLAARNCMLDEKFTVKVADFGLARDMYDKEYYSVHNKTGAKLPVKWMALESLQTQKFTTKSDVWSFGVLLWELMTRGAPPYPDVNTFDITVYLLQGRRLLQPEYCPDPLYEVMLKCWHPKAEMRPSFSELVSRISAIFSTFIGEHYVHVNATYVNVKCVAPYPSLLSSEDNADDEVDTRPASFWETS

The target in test [3] is T1, HGFR. As to the kind of experiment: Inhibitory activity against the HGFR autophosphorylation using ELISA. Type of test: cell-based. Further details: endogenous in cells; host or cells: MKN-45 human gastric cancer cells. To be noted: MKN-45 cells, test substance 1 hr, cell extract. The protocol:
Human gastric cancer cells (MKN-45) were suspended in a 1% FBS-containing RPMI1640 medium (purchased from Sigma). […] After the culture, from each well was removed the supernatant, followed by adding 0.05 ml of a 1% FBS-containing RPMI1640 medium. Then, the well was supplied with 0.05 ml of the test substance dissolved in dimethyl sulfoxide (diluted with a 1% FBS-containing RPMI1640 medium), followed by culturing in a 5% CO2 incubator (37° C.) for 1 hr. From each well was removed the supernatant, and each well was washed with 150 μl of PBS, followed by adding 100 μl of a lysis buffer (50 mM Hepes (pH 7.4), 150 mM NaCl, 10% (v/v) glycerol, 1% Triton X-100, 1.5 mM MgCl2, 1 mM EDTA (pH 8.0), 100 mM NaF, 1 mM PMSF, 10 μg/ml Aprotinin, 50 μg/ml Leupeptin, 1 μg/ml Pepstatin A and 1 mM Na3VO4). The plate was shaken at 4° C. for 1 hr to prepare the cell extract.
To a 96-well plate for ELISA (purchased from COSTAR, Production No. 3369) was added 50 μl of 60 mM bicarbonate buffer (pH 9.6) containing 50 μg/ml of an anti-phosphotyrosine antibody (PY20, purchased from Transduction Laboratory, Production No. P-11120). The plate was incubated at 4° C. overnight.
Each well of the plate prepared in 2. was washed three times with 200 μl of PBS, and supplied with 150 μl of 3% BSA/PBS, followed by incubating at room temperature for 2 hrs. Each well was washed three times with 200 μl of PBS, and supplied with 50 μl of the above cell extract, followed by incubating at 4° C. overnight. After the incubation, each well was washed three times with 250 μl of a washing solution (0.1% BSA, 20 mM Tris-HCl (pH 7.6), 137 mM NaCl, and 0.05% Tween-20), and supplied with 70 μl of anti-HGFR antibody (h-Met(C-12), purchased from Santa Cruz, Production No. sc-10) 2,000-fold diluted with a reaction solution (1% BSA, 20 mM Tris-HCl (pH 7.6), 137 mM NaCl and 0.05% Tween-20), followed by incubating at room temperature for 1 hr. The well was washed three times with 250 μl of the washing solution, and supplied with 70 μl of peroxidase-labelled anti-rabbit IgG antibody (purchased from Cell Signaling, Production No. 7074) 2,000-fold diluted with the reaction solution, followed by incubating at room temperature for 1 hr. […] Each well was supplied with 70 μl of 1 M phosphoric acid, and using the Plate Reader MTP-500 (Corona Electric), the absorbance of the well was instantly determined at a measurement wavelength of 450 nm. While defining the absorbance of a well supplied with the cell extract having no test substance as 100% HGFR autophosphorylation activity, and the absorbance of a well supplied with 50 μl of the lysis buffer as 0% HGFR autophosphorylation activity, the HGFR autophosphorylation activity (%) was calculated for each well.
Target sequence in this assay (P08581 25-1390): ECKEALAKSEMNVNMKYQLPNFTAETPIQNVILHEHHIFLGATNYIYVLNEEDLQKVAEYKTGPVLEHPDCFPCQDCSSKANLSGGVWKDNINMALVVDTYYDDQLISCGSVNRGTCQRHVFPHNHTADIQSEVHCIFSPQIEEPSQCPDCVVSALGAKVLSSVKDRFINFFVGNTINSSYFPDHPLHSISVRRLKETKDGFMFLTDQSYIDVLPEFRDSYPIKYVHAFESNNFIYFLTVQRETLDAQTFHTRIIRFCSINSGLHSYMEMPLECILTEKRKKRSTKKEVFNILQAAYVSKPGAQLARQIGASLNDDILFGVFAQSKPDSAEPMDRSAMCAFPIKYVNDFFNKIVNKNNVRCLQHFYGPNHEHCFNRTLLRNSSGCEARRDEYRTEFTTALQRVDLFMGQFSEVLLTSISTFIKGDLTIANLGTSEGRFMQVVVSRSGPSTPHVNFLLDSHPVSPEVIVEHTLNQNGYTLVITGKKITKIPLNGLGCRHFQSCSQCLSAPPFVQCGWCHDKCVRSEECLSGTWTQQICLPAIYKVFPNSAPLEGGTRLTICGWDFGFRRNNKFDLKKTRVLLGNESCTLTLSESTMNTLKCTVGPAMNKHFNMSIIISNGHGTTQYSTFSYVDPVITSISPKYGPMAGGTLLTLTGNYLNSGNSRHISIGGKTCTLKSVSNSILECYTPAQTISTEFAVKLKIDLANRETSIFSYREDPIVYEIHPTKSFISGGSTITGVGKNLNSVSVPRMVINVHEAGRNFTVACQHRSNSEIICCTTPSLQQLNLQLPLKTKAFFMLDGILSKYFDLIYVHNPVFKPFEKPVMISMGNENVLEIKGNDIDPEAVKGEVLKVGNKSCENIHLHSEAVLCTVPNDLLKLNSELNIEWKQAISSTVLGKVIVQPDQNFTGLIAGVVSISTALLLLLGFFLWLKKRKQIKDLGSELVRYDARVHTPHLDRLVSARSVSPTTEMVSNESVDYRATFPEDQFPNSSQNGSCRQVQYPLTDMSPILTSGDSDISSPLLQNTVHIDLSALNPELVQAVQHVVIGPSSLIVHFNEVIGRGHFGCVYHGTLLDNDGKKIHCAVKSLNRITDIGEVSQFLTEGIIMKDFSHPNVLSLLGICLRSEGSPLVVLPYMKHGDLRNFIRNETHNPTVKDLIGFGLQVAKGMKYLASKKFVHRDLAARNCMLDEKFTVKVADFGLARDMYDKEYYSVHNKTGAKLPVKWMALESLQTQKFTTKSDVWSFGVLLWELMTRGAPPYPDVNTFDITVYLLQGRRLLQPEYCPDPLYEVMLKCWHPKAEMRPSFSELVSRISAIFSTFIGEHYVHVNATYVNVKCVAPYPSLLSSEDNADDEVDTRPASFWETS

Consider `CN1CCN(C2CCN(C(=O)Nc3cc(Oc4ccc(NC(=O)C5(C(=O)Nc6ccc(F)cc6)CC5)c(F)c4)ccn3)CC2)CC1` [Example 9, N-(2-Fluoro-4-{[2-({[4-(4-methylpiperazin-1-yl)piperidin-1-yl]carbonyl}amino)pyridin-4-yl]oxy}phenyl)-N′-(4-fluorophenyl)cyclopropane-1,1-dicarboxamide], for which the IC50 in test [1] is 17 nM.
Consider `O=C(Nc1cc(Oc2cc(F)c(NC(=O)C3(C(=O)Nc4ccc(F)cc4)CC3)cc2F)ccn1)N1CC(O)C1` [Example 16, N-{2,5-Difluoro-4-[(2-{[(3-hydroxyazetidin-1-yl)carbonyl]amino}pyridin-4-yl)oxy]phenyl}-N′-(4-fluorophenyl)cyclopropane-1,1-dicarboxamide], for which the IC50 in test [2] is 4 nM; in test [1] it was 5 nM; in test [3], 8.4 nM.
For the compound `CN1CCC(N(C)C(=O)Nc2cc(Oc3cc(F)c(NC(=O)C4(C(=O)Nc5ccc(F)cc5)CC4)cc3F)ccn2)CC1` [Example 19], the results for the IC50 in test [2], in test [1] and in test [3] were 49 nM, 4.9 nM and 11 nM, respectively.
The matching figures for `O=C(Nc1cc(Oc2cc(F)c(NC(=O)C3(C(=O)Nc4ccc(F)cc4)CC3)cc2F)ccn1)N1CC[C@H](O)C1` [Example 22, N-{2,5-Difluoro-4-[(2-{[((S)-3-hydroxypyrrolidin-1-yl)carbonyl]amino}pyridin-4-yl)oxy]phenyl}-N′-(4-fluorophenyl)cyclopropane-1,1-dicarboxamide]: 16 nM, 2.4 nM and 4.5 nM.
The matching figures for `O=C(Nc1cc(Oc2cc(F)c(NC(=O)C3(C(=O)Nc4ccc(F)cc4)CC3)cc2F)ccn1)N1CC[C@@H](O)C1` [Example 25, N-{2,5-Difluoro-4-[(2-{[((R)-3-hydroxypyrrolidin-1-yl)carbonyl]amino}pyridin-4-yl)oxy]phenyl}-N′-(4-fluorophenyl)cyclopropane-1,1-dicarboxamide]: 10 nM, 2.2 nM and 3.4 nM.
